Values of other authors in patent US6733789B1 (Biovail Laboratories, Inc., priority 1999, dated 2004).

CC(C)NCC(O)COc1ccc(COCCOC(C)C)cc1 (stereo not drawn) [bisoprolol]
peak plasma concentration (after a 10 mg dose, oral): 40 ng/mL
effect of food on peak plasma concentrations (concomitant food intake or fasting): appear not to be affected by concomitant food intake or fasting
dependence of pharmacokinetic properties on age or dose (dose range 2.5-100 mg): not dependent on age or dose
excreted unchanged in the urine (in vivo): About 50%
mean plasma half life (in vivo): 10 to 12 h
pre-systemic metabolism (oral administration): below 10%
time to peak plasma concentrations (oral administration): three
adverse effects (spontaneously mentioned by patients treated with bisoprolol): Dizziness, headache and tiredness are the most frequent adverse effects
biotransformed in the liver (subsequent elimination of inactive metabolites via the kidneys): 50%
